# From US10766927B2, “Peptides that stimulate subcutaneous adipogenesis” (THE REGENTS OF THE UNIVERSITY OF CALIFORNIA, priority 2012, dated 2020)
# Assays:
# [1] = test system: Pre-adipocyte stem cells including bone marrow mesenchymal stem cells and fibroblasts; assay: Assay 1 to measure adipogenesis (IBMX/dexamethasone initiation, Oil Red O or BODIPY staining); type: cell-based, rat; details: for adipogenic effect compared to KSEVSK 6-mer: assay 1 (FIG. 11); for Fold adipogenic induction vs. negative control / Specific activity (activity/1000 daltons): Assay 1
# Protocol: Reagents: (1) 3-isobutyl-1-methylxanthine (IBMX) solution: 0.5M in DMSO; (2) Insulin solution: 10 mg/mL recombinant human insulin; (3) Dexamethasone solution in 10 mM in ethanol; (4) Oil Red 0 (0.36% in 60% isopropanol) or BODIPY dye (BODIPY 493/503 (4,4-difluoro-1,3,5,7-tetramethyl-4-bora-3a,4a-diaza-s-indacene-8-propionic acid, succinimidyl ester) from Invitrogen at 4-10 μM).
# Adipogenesis Initiation Media: mesenchymal stem cell expansion media/0.5 mM IBMX/1 μM dexamethasone. Mesenchymal stem cell expansion media is commercially available from Millipore. The IBMX Solution was diluted 1:1000 and the Dexamethasone Solution was diluted 1:10,000 in expansion media containing antibiotics and antimycotics. The prepared media was stored at 4° C.
# Adipogenesis Progression Media for positive control: mesenchymal stem cell expansion media/10 μg/mL insulin. The Insulin Solution was diluted 1:1000 in the expansion media and stored at 4° C.
# Experimental Adipogenesis Progression Media: mesenchymal stem cell expansion media/1-100 μg/mL RHAMM antagonist peptides.
# Adipogenesis Maintenance Media: mesenchymal stem cell expansion media containing antibiotics and antimycotics.
# Negative Control Media: DMEM/10% normal calf serum.
# (§1) Pre-adipocyte stem cells including bone marrow mesenchymal stem cells and fibroblasts including reticular and papillary dermal fibroblasts were propagated using standard tissue culture methods. Cells were trypsinized to remove the cells from the substratum. The trypsin was neutralized and cells were counted using a hemocytometer. Cells were resuspended at 30,000 cells/mL in expansion media. […] of cell suspension was plated per well of 24-well plate, with several wells left empty for blank well staining.
# Cells were incubated for 1-2 days until they reached confluency. Approximately 1.8 mL of media was removed from each well and replaced with 2 mL Adipogenesis Initiation Media. For negative control wells, expansion media only was used at this step and for subsequent media changes. For all media changes, media was replaced as gently as possible to avoid disturbing the monolayer.
# Cells were incubated for 48 hours at 37° C., 5% CO2. 2 mL media was removed from each well, and replaced with 2 mL either positive control or experimental Adipogenesis Progression Media per well. Cells were again incubated for 48 hours at 37° C., 5% CO2. 2 mL of media was removed from each well and replaced with 2 mL Adipogenesis Maintenance Media per well. In addition, media was added to the empty wells reserved for blank well staining Cells were incubated for at least 48 hours at 37° C., 5% CO2. Media was replaced every 48-72 hours. Accumulation of intracellular lipid droplets continued for at least 5 days.
# For quantification of Oil Red 0 staining, media was removed and cells were washed twice with PBS, using care to gently add the PBS. 0.5 mL Oil Red 0 solution was added per well of 24-well plate, including to the wells lacking cells, but containing media. Cells were incubated for 15 minutes at room temperature. The staining solution was then removed and wells were washed three times with 1 mL of phosphate buffered saline (PBS). In some experiments, following removal of the last wash, stained plates were scanned or photographed.
# Adipogenesis was quantified using a spectrophotometer or fluorometer. 0.25 mL Dye Extraction Solution (isopropyl alcohol) was added per well, and the plate was set on an orbital shaker or platform rocker for 15-30 minutes. Extracted dye was transferred into a cuvette and absorbance was read in a spectrophotometer at visible range for oil red 0 or transferred to a 96-well plate and quantified in a plate reader.
# For quantification of BODIPY dye uptake, media was removed and cells were washed twice with PBS, using care to gently add the PBS. Cells were then fixed in 3% paraformaldehyde, washed in PBS then incubated for 1 hour in the dark with the BODIPY solution, prepared in PBS. […]
# [2] = test system: Pre-adipocyte stem cells, bone marrow mesenchymal stem cells and fibroblasts; assay: Assay 2 to measure adipogenesis (dexamethasone/insulin/indomethacin induction, Oil Red O or BODIPY staining); type: cell-based; details: for adipogenic effect compared to KSEVSK 6-mer: assay 2 (FIG. 12); for Fold adipogenic induction vs. negative control / Specific activity (activity/1000 daltons): Assay 2
# Protocol: The dexamethasone, insulin, and Oil Red 0 solutions were the same as described above for assay 1. Indomethacin Solution contained 10 mM indomethacin in methanol. The BODIPY 493/503 dye was used at a concentration of 4 μM.
# Adipogenesis Maintenance Media was prepared as described above.
# Adipogenesis Induction Media: To prepare 501 mL of Adipogenesis Induction Media, 50 μL of the 10 mM stock solution of dexamethasone, 500 μL of the 10 mg/ml stock solution of insulin, 5 ml of a 10 mM stock solution of indomethacin, and 5 mL of a 100× stock solution of penicillin and streptomycin were added to 490 mL of mesenchymal stem cell expansion media.
# (§2) Pre-adipocyte stem cells, bone marrow mesenchymal stem cells and fibroblasts such as dermal reticular and papillary fibroblasts were propagated using standard tissue culture methods. Cells were trypsinized to remove cells from the substratum, the trypsin was neutralized, and cells were counted using a hemocytometer. Cells were resuspended at 60,000 cells/ml in low glucose DMEM containing 10% calf serum. 1 mL of cell suspension per well was plated in a 24-well plate, with several wells left empty for blank well staining.
# Cells were incubated overnight and had reached confluency at this point. Approximately 1.8 ml of media was removed from each well and replaced with 2 ml Adipogenesis Induction Media. For negative control wells, expansion medium only was used at this step and for subsequent media changes. For all media changes, media was replaced as gently as possible to avoid disturbing the monolayer.
# Cells were incubated for 3 days at 37° C., 5% CO2, media was replaced with fresh Adipogenesis Induction Media, and cells were incubated for an additional three days, at which point adipogenesis could be observed in about 5-10% of cells. Media was removed and replaced with 2 ml of maintenance medium containing either RHAMM antagonist peptides (experimental group) or insulin (concentration as in the induction medium used as positive control). Cells were incubated for 3 days at 37° C., 5% CO2.
# Media was removed and BODIPY or Oil Red O staining was performed as described above for assay 1.
# [3] = test system: bone marrow mesenchymal stem cells; assay: Adipogenesis in culture, assay 1 or 2 not specified; type: cell-based; details: for adipogenic activity (in words): truncation fragments, FIGS. 7-9, 13; for activity compared to KSEVSK hexamer: FIG. 13, doses 1, 5, 25 μg, absorbance at 520 nm
# Description: The following assays were used to assess adipogenic activity of the peptides in the experiments described below in Example 2.
# as §1, §2
# [4] = test system: Pre-adipocytes (rat mesenchymal stem cells); assay: Adipogenic potential in 2D rat pre-adipocyte culture; type: cell-based; details: ranked on a scale of 0-5 with 5 the highest possible score; two-dimensional tissue culture
# Protocol: (§3) Examples of the adipogenic effects of RHAMM antagonists (peptide B (SEQ ID NO: 2), peptide P15-1 (SEQ ID NO. 1), and the antibody to peptide B) are summarized in Table 1. Peptide P15-1, peptide B, and a RHAMM antibody were assayed for their effects on pre-adipocyte stem cells in culture and when injected into the dermis of aged rats. Reagents were ranked on a scale of 0-5 with 5 representing the highest possible score and a completely filled in Harvey ball. “2D” refers to two-dimensional tissue culture.
# Rat skin = assay: Rat dermal skin model of adipogenesis (injection into the dermis); type: in vivo; details: for adipogenic potential, In vivo Rat skin: ranked on a scale of 0-5 with 5 the highest possible score, injected into the dermis of aged rats
# Protocol: as §3
# In FIGS. 5A and 5B, data are shown as a ratio of the area (“surface area”) of fat pads expressed as a ratio of experimental/control values.
# The 6-mer (KSEVSK; SEQ ID NO: 3) was tested for adipogenic effect in rat skin in vivo. The results of this testing are shown in the photographs in FIG. 10.
# human Pre-adipocytes = assay: Adipogenic potential in 2D human pre-adipocyte culture; type: cell-based; details: ranked on a scale of 0-5 with 5 the highest possible score; two-dimensional tissue culture
# Protocol: as §3
# nude guinea pigs = assay: Nude guinea pig model, injection in upper back and ear fat pad, H and E staining; type: in vivo; details: upper back and ear fat pad after injection; control collagen gel vehicle only
# Protocol: Peptide B (SEQ ID NO: 2) was also tested for its effect in nude guinea pigs since their skin structure resembles human facial skin. In particular, the skin of this animal model is more similar to human skin than is rat skin, in that it is hairless and the keratinocyte layer is thicker than in the rat model. […] Thus, peptide B was effective in promoting adipogenesis in this nude guinea pig model.
# mesenchymal stem cell = assay: Adipogenesis using a commercially available mesenchymal stem cell kit; type: cell-based
molecule,measurement,setting,value
ASEVSK,adipogenic effect compared to KSEVSK 6-mer,[1],reduced adipogenic effects
same,adipogenic effect compared to KSEVSK 6-mer,[2],reduced adipogenic effects
KLKDENS,adipogenic activity (in words),[3],Only the SQLKSEVSK (SEQ ID NO: 44) fragment was found to be adipogenic
KLKDENSQLKSEVSK [peptide B],"adipogenic potential, 2D rat Pre-adipocytes (rat mesenchymal stem cells)",[4],5
same,fat accumulation in rat dermal skin model,Rat skin; 25-50 μg/injection site,induced significant fat accumulation
same,"fat pad surface area, experimental/control: animal group with best effect",Rat skin; FIGS. 5A and 5B,most effective in old females
same,"adipogenic potential, In vivo Rat skin",Rat skin,5
same,"adipogenic potential, 2D human Pre-adipocytes",human Pre-adipocytes,5
same,Fold adipogenic induction vs. negative control,[2],3.1
same,Specific activity (activity/1000 daltons),[2],1.7 activity/1000 daltons
same,amount at which maximum adipogenic effect was obtained,"[3]; bone marrow mesenchymal stem cells, depending upon the screening assay used (FIGS. 3B, 3C, 4)",1 to 5 µg
same,subcutaneous fat deposition,nude guinea pigs,increase in subcutaneous fat deposition
KSEVS,activity compared to KSEVSK hexamer,[3],much less active
same,adipogenic activity (in words),[3],low level of adipogenic activity
KSEVSA,adipogenic effect compared to KSEVSK 6-mer,[1],reduced adipogenic effects
same,adipogenic effect compared to KSEVSK 6-mer,[2],reduced adipogenic effects
KSEVSK [6mer],adipogenic effect in rat skin in vivo (fat pads),Rat skin; FIG. 10,"able to induce large fat pads, possibly larger than peptide B"
same,Fold adipogenic induction vs. negative control,[1],2.8
same,Specific activity (activity/1000 daltons),[1],3.7 activity/1000 daltons
same,Fold adipogenic induction vs. negative control,[2],4.2
same,Specific activity (activity/1000 daltons),[2],5.6 activity/1000 daltons
same,adipogenic activity (in words),[3],also found to be adipogenic
LKSEVSK [7mer],Fold adipogenic induction vs. negative control,[1],2
same,Specific activity (activity/1000 daltons),[1],2.3 activity/1000 daltons
same,Fold adipogenic induction vs. negative control,[2],3.0
same,Specific activity (activity/1000 daltons),[2],3.4 activity/1000 daltons
same,adipogenic activity (in words),[3],also found to be adipogenic
SEVSK,activity compared to KSEVSK hexamer,[3],much less active
same,adipogenic activity (in words),[3],low level of adipogenic activity
SQLKSEVSK [9mer],Fold adipogenic induction vs. negative control,[1],2.4
same,Specific activity (activity/1000 daltons),[1],2.1 activity/1000 daltons
same,Fold adipogenic induction vs. negative control,[2],3.0
same,Specific activity (activity/1000 daltons),[2],2.6 activity/1000 daltons
same,adipogenic activity (in words),[3],found to be adipogenic
STMMSRSHK,adipogenic activity (in words),[3],has adipogenic activity
STMMSRSHKTRSHHV [peptide P15-1],"adipogenic potential, 2D rat Pre-adipocytes (rat mesenchymal stem cells)",[4],2
same,"adipogenic potential, In vivo Rat skin",Rat skin,2
same,"adipogenic potential, 2D human Pre-adipocytes",human Pre-adipocytes,2
RHAMM carboxy-terminal sequence: RHAMM carboxy-terminal sequence aa681-794 produced as a recombinant protein (protein) LDAFEAEKQALLNEHGATQEQLNKIRDSYAQLLGHQNLKQKIKHVVKLKDENSQLKSEVSKLRSQLVKRKQNELRLQGELDKALGIRHFDPSKAFCHASKENFTPLKEGNPNCC,promotion of adipogenesis,mesenchymal stem cell,promoted adipogenesis
